The results in this text go back to patent US20220009920A1 (GB005, Inc., priority 2020, published 2022).

By inhibition is commonly meant the relative decrease from the control value, in per cent.

Test in all cases: Large panel kinase profiling
Common to all, as to assay type: biochemical
Settings in all cases: 1 μM test article, 1 mM ATP

One assay addresses BMP2K/BIKE (Homo sapiens, UniProt Q9NSY1). The essentials:
(§1)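 Reactions contain 1 mM ATP and 1 μM test article; the CSox peptide sensor reports phosphorylation as fluorescence gain. Temperature is held at 30° C. while signal (360 nm excitation, 485 nm emission) is recorded every 1 min.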

The target of a further assay is T1, CDK2/E1 (Homo sapiens, UniProt P24941).
T1 construct: AssayQuant Technologies, Inc. (ran the panel)
The essentials:
as §1

Another assay concerns the target EPHA7 (Homo sapiens, UniProt Q15375). In a few lines: as §1
For the next assay, the target named is FGFR3 (Homo sapiens, UniProt P22607). The essentials: as §1
In a further assay the target is T2, MAPK3/ERK1 (Homo sapiens, UniProt P27361).
T2 construct: AssayQuant Technologies, Inc. (service provider)
The essentials:
as §1

A further assay has as its target PRKACB (Homo sapiens, UniProt P22694). The essentials: as §1
The next assay addresses T3, SRC (Homo sapiens, UniProt P12931).
T3 construct: AssayQuant Technologies, Inc. (contract assay)
In a few lines: as §1

The next assay concerns the target T4, STK17B/DRAK2 (Homo sapiens, UniProt O94768).
T4 construct: AssayQuant Technologies, Inc. (contract assay)
T4 sequence (O94768 1-372): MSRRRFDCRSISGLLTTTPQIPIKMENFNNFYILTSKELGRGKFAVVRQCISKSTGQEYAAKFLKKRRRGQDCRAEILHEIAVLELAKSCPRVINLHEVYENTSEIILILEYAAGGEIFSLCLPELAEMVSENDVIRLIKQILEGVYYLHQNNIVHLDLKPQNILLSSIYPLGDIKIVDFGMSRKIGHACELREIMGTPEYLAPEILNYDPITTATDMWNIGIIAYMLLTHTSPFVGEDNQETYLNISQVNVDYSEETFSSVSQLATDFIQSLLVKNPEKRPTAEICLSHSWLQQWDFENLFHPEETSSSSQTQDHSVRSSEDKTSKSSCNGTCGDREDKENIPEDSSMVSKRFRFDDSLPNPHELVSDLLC
The essentials: as §1

In a further assay the target is T5, TAOK1 (Homo sapiens, UniProt Q7L7X3).
T5 construct: AssayQuant Technologies, Inc. (contract assay)
T5 sequence (Q7L7X3 1-1001): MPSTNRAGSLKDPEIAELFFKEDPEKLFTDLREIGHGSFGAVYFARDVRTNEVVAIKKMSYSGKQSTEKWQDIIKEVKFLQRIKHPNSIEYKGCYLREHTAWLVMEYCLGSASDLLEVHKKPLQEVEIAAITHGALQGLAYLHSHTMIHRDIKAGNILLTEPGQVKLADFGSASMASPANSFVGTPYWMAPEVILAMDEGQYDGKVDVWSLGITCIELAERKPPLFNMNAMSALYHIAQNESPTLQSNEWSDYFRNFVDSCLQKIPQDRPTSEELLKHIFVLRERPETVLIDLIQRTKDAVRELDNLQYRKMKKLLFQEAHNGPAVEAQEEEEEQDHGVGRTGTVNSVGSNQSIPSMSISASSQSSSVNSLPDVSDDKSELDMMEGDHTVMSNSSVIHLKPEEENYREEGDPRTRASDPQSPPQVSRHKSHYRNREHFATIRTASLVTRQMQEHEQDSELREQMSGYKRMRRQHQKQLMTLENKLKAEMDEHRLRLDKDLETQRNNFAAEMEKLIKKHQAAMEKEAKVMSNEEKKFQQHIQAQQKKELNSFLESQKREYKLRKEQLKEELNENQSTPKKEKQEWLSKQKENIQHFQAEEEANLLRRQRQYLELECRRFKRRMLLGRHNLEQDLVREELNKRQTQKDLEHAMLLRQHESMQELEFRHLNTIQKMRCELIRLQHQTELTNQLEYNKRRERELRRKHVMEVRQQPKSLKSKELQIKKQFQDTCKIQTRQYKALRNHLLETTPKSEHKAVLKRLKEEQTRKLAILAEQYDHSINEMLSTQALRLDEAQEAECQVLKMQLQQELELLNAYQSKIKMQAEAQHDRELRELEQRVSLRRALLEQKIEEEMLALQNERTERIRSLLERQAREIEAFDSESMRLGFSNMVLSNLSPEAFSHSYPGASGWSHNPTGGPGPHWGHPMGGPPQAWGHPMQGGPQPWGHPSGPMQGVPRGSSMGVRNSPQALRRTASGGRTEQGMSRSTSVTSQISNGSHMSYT
The essentials:
as §1

The target in a further assay is T6, TNK2/ACK (Homo sapiens, UniProt Q07912).
T6 construct: AssayQuant Technologies, Inc. (contract laboratory that ran the panel)
In a few lines:
as §1

T6 sequence (Q07912 whole entry): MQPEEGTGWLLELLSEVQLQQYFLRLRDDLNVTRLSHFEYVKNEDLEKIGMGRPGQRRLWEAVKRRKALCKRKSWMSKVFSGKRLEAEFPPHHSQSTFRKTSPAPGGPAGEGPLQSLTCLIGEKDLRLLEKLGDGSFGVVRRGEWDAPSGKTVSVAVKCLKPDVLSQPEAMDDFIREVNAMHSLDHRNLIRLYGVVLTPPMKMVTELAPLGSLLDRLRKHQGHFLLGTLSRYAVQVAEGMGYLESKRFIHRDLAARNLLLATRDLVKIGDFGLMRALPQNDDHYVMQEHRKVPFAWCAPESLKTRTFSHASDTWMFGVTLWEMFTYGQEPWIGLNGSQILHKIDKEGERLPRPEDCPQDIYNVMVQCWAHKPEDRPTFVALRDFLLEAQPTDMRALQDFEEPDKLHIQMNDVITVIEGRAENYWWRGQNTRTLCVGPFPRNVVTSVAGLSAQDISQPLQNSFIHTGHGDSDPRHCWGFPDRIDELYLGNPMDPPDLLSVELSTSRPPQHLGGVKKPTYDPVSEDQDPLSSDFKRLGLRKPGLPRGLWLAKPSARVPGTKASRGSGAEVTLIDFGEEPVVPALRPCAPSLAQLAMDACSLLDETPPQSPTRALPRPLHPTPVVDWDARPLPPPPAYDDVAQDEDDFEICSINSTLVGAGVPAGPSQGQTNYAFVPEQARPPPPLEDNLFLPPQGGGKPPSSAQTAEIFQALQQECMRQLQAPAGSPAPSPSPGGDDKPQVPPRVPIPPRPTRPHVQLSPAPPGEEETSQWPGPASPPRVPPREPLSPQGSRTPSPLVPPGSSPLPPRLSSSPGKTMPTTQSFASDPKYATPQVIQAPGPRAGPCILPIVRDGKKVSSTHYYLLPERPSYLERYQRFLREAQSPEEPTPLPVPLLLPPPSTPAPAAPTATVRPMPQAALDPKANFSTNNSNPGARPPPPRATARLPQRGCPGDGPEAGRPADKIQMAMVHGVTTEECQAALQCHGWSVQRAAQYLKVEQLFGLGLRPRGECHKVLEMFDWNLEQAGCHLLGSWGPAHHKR
FGFR3, sequence (P22607 23-806, species assumed): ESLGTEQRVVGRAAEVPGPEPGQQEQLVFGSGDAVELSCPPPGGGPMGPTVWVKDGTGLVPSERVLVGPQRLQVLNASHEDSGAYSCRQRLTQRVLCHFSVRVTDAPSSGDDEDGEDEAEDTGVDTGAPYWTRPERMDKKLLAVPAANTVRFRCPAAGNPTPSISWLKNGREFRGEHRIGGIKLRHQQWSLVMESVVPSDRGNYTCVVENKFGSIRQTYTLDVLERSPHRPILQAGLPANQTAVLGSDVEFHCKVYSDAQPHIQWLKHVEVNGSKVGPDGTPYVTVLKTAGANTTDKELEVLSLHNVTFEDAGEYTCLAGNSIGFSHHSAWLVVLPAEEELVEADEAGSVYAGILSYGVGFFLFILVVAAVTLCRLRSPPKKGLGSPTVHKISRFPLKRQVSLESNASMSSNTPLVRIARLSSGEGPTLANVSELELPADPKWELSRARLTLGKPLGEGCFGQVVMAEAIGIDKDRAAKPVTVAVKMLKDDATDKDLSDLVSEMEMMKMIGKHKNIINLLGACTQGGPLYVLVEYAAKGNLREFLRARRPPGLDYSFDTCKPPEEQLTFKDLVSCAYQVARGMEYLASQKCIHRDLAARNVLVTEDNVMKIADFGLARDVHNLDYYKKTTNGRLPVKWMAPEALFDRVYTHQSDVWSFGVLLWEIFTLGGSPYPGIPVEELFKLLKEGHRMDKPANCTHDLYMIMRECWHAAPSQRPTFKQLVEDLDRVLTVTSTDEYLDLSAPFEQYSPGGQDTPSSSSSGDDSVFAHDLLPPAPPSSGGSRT
T2 sequence (P27361 whole entry): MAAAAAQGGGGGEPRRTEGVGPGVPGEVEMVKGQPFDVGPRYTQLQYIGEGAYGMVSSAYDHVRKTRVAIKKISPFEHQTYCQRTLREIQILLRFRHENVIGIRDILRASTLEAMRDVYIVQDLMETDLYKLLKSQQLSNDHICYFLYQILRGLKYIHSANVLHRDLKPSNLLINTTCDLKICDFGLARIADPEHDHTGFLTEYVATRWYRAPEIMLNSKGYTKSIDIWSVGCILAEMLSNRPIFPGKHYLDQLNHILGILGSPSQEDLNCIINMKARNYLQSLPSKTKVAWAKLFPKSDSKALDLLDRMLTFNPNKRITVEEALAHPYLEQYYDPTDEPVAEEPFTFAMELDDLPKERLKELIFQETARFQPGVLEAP
BMP2K/BIKE, sequence (Q9NSY1 whole entry): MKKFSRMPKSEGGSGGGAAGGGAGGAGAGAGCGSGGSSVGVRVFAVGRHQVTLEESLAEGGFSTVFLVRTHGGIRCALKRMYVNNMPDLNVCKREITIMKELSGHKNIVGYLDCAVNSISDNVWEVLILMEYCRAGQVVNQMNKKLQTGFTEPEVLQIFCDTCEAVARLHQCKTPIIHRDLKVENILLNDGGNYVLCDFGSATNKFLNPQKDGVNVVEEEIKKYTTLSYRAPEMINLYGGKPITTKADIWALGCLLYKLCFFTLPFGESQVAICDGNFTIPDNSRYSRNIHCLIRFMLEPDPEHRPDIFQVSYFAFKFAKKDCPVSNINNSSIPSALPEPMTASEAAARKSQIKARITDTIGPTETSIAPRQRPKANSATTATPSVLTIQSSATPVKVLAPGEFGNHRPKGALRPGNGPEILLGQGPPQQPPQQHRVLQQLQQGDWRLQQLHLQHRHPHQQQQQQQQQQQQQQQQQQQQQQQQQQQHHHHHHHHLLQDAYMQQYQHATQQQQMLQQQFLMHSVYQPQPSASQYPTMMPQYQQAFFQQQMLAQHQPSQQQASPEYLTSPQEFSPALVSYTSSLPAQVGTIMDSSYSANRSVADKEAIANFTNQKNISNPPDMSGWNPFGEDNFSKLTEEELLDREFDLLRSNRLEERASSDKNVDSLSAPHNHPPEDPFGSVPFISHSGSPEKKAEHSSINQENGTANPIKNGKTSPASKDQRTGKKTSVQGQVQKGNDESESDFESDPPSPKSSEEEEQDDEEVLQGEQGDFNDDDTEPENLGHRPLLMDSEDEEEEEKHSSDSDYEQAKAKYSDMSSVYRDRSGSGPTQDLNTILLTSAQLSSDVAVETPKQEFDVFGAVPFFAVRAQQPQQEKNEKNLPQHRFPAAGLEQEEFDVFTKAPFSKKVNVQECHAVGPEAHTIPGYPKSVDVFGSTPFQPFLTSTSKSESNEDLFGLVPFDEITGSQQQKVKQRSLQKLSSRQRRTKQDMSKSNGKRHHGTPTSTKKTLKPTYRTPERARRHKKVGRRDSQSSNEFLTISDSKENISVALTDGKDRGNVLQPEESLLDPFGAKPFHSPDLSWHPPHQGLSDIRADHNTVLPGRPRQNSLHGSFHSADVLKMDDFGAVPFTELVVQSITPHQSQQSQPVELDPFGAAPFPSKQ
EPHA7, sequence (Q15375 28-998, species assumed): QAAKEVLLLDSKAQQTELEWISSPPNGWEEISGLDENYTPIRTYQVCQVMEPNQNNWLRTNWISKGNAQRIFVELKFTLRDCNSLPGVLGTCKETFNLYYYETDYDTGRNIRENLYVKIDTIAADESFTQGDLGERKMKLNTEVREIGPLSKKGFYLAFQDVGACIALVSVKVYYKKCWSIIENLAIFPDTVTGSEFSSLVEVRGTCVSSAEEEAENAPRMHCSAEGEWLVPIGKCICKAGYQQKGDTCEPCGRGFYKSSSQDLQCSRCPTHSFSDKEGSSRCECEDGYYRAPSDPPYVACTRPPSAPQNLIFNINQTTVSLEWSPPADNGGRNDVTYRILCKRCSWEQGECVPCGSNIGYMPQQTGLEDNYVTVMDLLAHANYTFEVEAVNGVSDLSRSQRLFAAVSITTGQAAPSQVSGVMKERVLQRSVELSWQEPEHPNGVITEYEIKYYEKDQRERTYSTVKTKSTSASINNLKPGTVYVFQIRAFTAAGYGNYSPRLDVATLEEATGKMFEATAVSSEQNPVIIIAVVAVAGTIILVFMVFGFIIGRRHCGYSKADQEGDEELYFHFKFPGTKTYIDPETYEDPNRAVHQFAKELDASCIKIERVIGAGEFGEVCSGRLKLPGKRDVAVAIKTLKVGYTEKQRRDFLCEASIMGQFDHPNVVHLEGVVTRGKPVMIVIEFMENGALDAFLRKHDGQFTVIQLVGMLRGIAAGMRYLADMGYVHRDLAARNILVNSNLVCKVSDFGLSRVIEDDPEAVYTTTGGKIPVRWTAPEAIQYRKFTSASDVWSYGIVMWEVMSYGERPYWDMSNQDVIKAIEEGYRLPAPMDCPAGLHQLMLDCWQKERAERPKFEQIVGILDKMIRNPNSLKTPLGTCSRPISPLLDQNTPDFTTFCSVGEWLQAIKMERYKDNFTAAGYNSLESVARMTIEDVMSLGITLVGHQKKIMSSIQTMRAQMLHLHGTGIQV
T3 sequence (P12931 whole entry, species assumed): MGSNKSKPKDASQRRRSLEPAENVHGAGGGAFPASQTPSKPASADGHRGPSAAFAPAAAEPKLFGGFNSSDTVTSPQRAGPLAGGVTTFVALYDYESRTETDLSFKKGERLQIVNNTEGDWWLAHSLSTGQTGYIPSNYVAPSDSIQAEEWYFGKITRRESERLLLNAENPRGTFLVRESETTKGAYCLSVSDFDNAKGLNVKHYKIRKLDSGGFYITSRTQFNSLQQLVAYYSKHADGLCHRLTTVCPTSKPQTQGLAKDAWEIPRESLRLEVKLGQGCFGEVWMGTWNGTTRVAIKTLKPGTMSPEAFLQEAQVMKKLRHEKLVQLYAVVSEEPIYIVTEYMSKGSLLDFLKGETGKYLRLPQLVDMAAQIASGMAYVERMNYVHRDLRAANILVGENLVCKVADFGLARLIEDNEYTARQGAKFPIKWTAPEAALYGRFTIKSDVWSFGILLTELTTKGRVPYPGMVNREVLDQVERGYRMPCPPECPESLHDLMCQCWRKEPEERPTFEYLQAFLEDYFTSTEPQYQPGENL

As to `C=CC(=O)N1CCCC(c2c(F)cc(C(N)=O)c3[nH]c4c(c23)CCCCC4)C1` (single isomer, unassigned) [Compound 5-6], the inhibition at 1 µM at BMP2K/BIKE was -18.6%; against CDK2/E1, -7.3%; on EPHA7, -0.1%; on FGFR3, 24.2%; against MAPK3/ERK1, -22.1%; at PRKACB, 10.6%. The inhibition at 1 µM is -28.3% on SRC, 0.3% on STK17B/DRAK2, 11.9% against TAOK1 and -8.3% against TNK2/ACK.
Consider `C=CC(=O)N1CCC[C@@H](c2c(F)cc(C(N)=O)c3[nH]c4c(c23)CC2(CC4)CC2)C1` [Compound 6-2, (S)-5-(1-acryloylpiperidin-3-yl)-6-fluoro-1,2,4,9-tetrahydrospiro[carbazole-3,1′-cyclopropane]-8-carboxamide], for which the inhibition at 1 µM against BMP2K/BIKE is -12.3%; on CDK2/E1, -12.9%; against EPHA7, 5.1%; against FGFR3, 10.5%; at MAPK3/ERK1, 22.7%; at PRKACB it was 13.2%. For the same compound, the inhibition at 1 µM on SRC was -7%; against STK17B/DRAK2, -26.9%; at TAOK1, 9.5%; against TNK2/ACK, 13.4%.
For `C=CC(=O)N1CCC[C@@H](c2c(F)cc(C(N)=O)c3[nH]c4c(c23)CCC4)C1` [Compound 10-2, (S)-8-(1-acryloylpiperidin-3-yl)-7-fluoro-1,2,3,4-tetrahydrocyclo-penta[b]indole-5-carboxamide], the inhibition at 1 µM against BMP2K/BIKE was -6.6%; on CDK2/E1, 7%; on EPHA7 it was -4.7%; at FGFR3, 18.3%; at MAPK3/ERK1 it was 5.5%; against PRKACB, 1.6%. Further, the inhibition at 1 µM at SRC is -1.8%; at STK17B/DRAK2, -23.7%; against TAOK1, 11.1%; on TNK2/ACK, 2%.
